Series [1] relates to HIV-1 viral DNA synthesis (reverse transcriptase). Nature of the series: Quantitative PCR of viral DNA from infected HOS cells. Format: cell-based. The conditions noted are these: viral DNA collected 2, 4, 6 and 24 hours post-infection. The source says:
FIG. 5 is a schematic illustrating the steps of HIV-1 viral DNA synthesis. Viral DNA was isolated from infections over time and assayed by quantitative PCR to determine the amount of viral DNA produced corresponding to various points of DNA synthesis. The regions targeted by our PCR primers and probes are indicated and correspond to: initiation (RU5), minus strand transfer (U3), full length viral DNA (gag), and plus strand transfer (corresponding to second strand synthesis).
The effects of the target compounds on viral DNA production were determined by quantitative PCR. 293 cells were transfected as above and transfections were washed with PBS 8 hours post-transfection and fresh medium added. The transfection wash step was repeated 24 hours post-transfection and fresh medium was added. On the day prior to infection, HOS cells were plated at 2×10^5 cells on to 60 mm plates. Virus-containing supernatants were harvested at 48 hours as above and treated with 20 U/mL of RNase-free DNase I (Roche Applied Science, Indianapolis, Ind.) and 30 U/mL of DNase Turbo (Ambion, Foster City, Calif.). Cells were pre-incubated with the target compounds for 3 h. For each target compound, the treated virus-containing supernatants were concentrated to 7.5 mL, and infections carried out by adding 1.75 mL each to 4 plates of HOS cells. Cells were harvested at 2, 4, 6, and 24 hour intervals and the viral DNA purified using the Qiagen EZ1 DNA tissue kit (Valencia, Calif.). Quantitative PCR (qPCR) was used to determine quantities of DNA corresponding to various steps along the viral DNA synthesis pathway. qPCR primers and probes used were as previously described. (Julias, J. G., Ferris, A. L., Boyer, P. L. and Hughes, S. H. (2001) J. Virol. 75, 6537-46.).
In order to determine that the compounds are targeting HIV-1 reverse transcriptase in the cell based assays, viral DNA was isolated from infections over time and assayed by quantitative PCR to determine the amount of viral DNA produced corresponding to various points of DNA synthesis (FIG. 5). The regions targeted by our PCR primers and probes correspond to: initiation (RU5), minus strand transfer (U3), full length viral DNA (gag), and plus strand transfer (corresponding to the initiation of second strand synthesis).

The next series has as its system HIV-1 Q151M complex. Format: cell-based.
A further series deals with HIV-1. Format: cell-based.
Another series deals with HIV-1 AZT-R. Format: cell-based.
For a further series, the system named is HIV-1 SSGR+215. Format: cell-based.
For series [2], the system named is NRTI-resistant HIV-1, including the M184V variant. Conditions: infected MT-4 cells, Ohrui 2006, Ohuri 2007, Kawamoto 2008, cited from earlier work.
The test system of another series is MT-4 cells. The conditions noted are these: previously reported; cited from earlier work.
For a further series, the system named is HIV-1 M184V variant. Format: cell-based. The conditions noted are these: HOS cells, single-cycle infectivity assay.
The test system of series [3] is HIV-1 vectors (wild-type). Format: cell-based.
For a further series, the system named is MT4 cells. Conditions: work from Ohuri and others; cited from earlier work.
A further series concerns the target T1, HIV-1 RT (Human immunodeficiency virus type 1 group M subtype B, UniProt P03366).
T1 construct: The expression and purification of HIV-1 RT and the polymerase assays were done as previously described; made in house
Nature of the series: Polymerase (DNA) extension assay with purified recombinant HIV-1 RT. Format: biochemical. As to the method: FIG. 15. In vitro DNA extension using purified, recombinant HIV-1 RT, with varying amounts of C4′-methyl-2-deoxyadenosinetriphosphate and either (A) a DNA template or (B) and RNA template. […] Bands in the lane containing equimolar amounts of ddATP and dATP correspond to pausing events at the site of incorporation of the nuclosidetriphosphate analog.
The expression and purification of HIV-1 RT and the polymerase assays were done as previously described. For the extension assays, 7.0µl of a […] of synthetic DNA oligonucleotide (5′-[…]-3′ (SEQ ID NO:1); Biosource, CA) was 5′ end-labeled, then annealed to an excess of either a DNA template (5′-[…]-3′ (SEQ ID NO:2)) or an RNA template (5′-[…]-3′ (SEQ ID NO:3)). The A residue is the first nucleotide past the 3′ end of the primer. The annealed template-primer (T/P) was suspended in a final concentration of 25.0 mM Tris (pH 8.0), 75 mM KCl, 8.0 mM MgCl2, 100.0µg/ml BSA, 10.0 mM CHAPS, and 10.0µM each of dCTP, dGTP, and TTP. For the RNA template reactions, the mixture was also supplemented with 1 U/µl of SuperAsin (Ambion). The reaction buffer was aliquoted to individual tubes, then supplemented with a total of 10.0µM dATP and/or adenosine triphosphate analog (as described in the figure legend). The reactions were initiated by the addition of 1.0µg RT and the reaction was incubated at 37° C. for the various indicated time intervals. Reactions were stopped by the addition of EDTA and the reactions precipitated by the addition of isopropyl alcohol. The products were resuspended in formamide gel loading buffer II (Ambion), heated at 70° for 5 min to denature the products, and fractionated on a 15% polyacrylamide sequencing gel.

Where two headings read alike, the source gives them in different places.

For the compound `CCC1(CO)OC(n2cnc3c(N)ncnc32)CC1O` (stereo not drawn) [C4′Et-2-dA, 5-(6-Amino-purin-9-yl)-2-ethyl-2-hydroxymethyl-tetrahydro-furan-3-ol], in [1], the “inhibition of DNA synthesis compared with AZT” value is “as well as or better than AZT”; the “late stage viral DNA synthesis (gag and 2nd Strand Transfer)” value was “significantly diminished”. Moreover, the “inhibition of NRTI resistance mutant Q151M complex” value in the series on HIV-1 Q151M complex is on record as “inhibitory”. Further, the “selectivity index (CC50 to EC50 ratio)” value in the series with HOS cells is “greater than 140”. For the same compound, in the series with HIV-1 (TZM-bl cells), the “effectiveness in TZM-bl cells compared with HOS cells” value is “equally as effective”. In addition, in the series on HIV-1 AZT-R, the “inhibition of NRTI resistance mutant AZT-R” value is given as “inhibitory”. In the series on HIV-1 AZT-R (HOS cells), the “increase in the EC50 value, AZT-R variant over wild-type” value amounted to 3.9 fold. The “inhibition of NRTI resistance mutant SSGR+215” value with HIV-1 SSGR+215 is listed as “inhibitory”.

Consider `C#C[C@]1(CO)O[C@@H](n2cnc3c(N)nc(F)nc32)C[C@@H]1O` [C4′-ethynl-deoxy-2-fluoro-adenosine, C4′-ethynl-deoxy-2-fluoroadenosine], for which the “effectiveness against HIV-1 in MT-4 cells” value was “effective compound against NRTI-resistant HIV-1, including the M184V variant” in series [2]; “effective against the wild-type and the M184V reverse transcriptase variant” in [2] (listed as C4′-ethynl-deoxy-2-fluoroadenosine). The “cytotoxicity in MT-4 cells” value in the series with MT-4 cells was “decreased cytotoxicity”. In addition, in the series with HIV-1 M184V variant, the “increase in EC50 values, M184V variant over wild-type” value is 2 fold. For the same compound, the “efficacy against WT versus C4′-methyl- and -ethyl-2-deoxyadenosine” value in series [3] was “slightly improved efficacies against WT”.

The EC50 is the concentration that produces a half-maximal response. As for `C[C@]1(CO)O[C@@H](n2cnc3c(N)ncnc32)C[C@@H]1O` [C4′Me-2-dA, C4′-methyl-2-deoxyadenosine], in series [1], the “inhibition of DNA synthesis compared with AZT” value is reported as “as well as or better than AZT”; the “late stage viral DNA synthesis (gag and 2nd Strand Transfer)” value is recorded as “significantly diminished”. Besides, the “inhibition of NRTI resistance mutant Q151M complex” value in the series with HIV-1 Q151M complex is “inhibitory”. Moreover, the “effectiveness in TZM-bl cells compared with HOS cells” value with HIV-1 is “equally as effective”. Moreover, in the series on HIV-1 AZT-R, the “inhibition of NRTI resistance mutant AZT-R” value was “inhibitory”. In [3] (read-out: EC50, relative infectivity of HIV-1 vectors), the EC50 is 48 nM. The “cytotoxicity in MT4 cell killing assays” value in the series on MT4 cells is listed as “cytotoxic”. Moreover, the “inhibition of NRTI resistance mutant SSGR+215” value with HIV-1 SSGR+215 is recorded as “inhibitory”.

For `C[C@]1(COP(=O)(O)OP(=O)(O)OP(=O)(O)O)O[C@@H](n2cnc3c(N)ncnc32)C[C@@H]1O` [C4′-methyl-2-dexoyadenosinetriphosphate], the chain termination entry at HIV-1 RT (longer time points, extended DNA products observed) is “does not act as a chain terminator”. In addition, on HIV-1 RT (mixtures of ATP and the triphosphate), the “competition with normal nucleosides” value is “able to compete with normal nucleosides during DNA synthesis”. The “effect of triphosphate incorporation on DNA synthesis” value at HIV-1 RT (short time points, DNA or RNA template) is given as “pausing during DNA synthesis at the point of incorporation”.

Source of the values: patent publication US8513214B2, “C4′-substituted-2-deoxyadenosine analogs and methods of treating HIV” (The United States of America as Represented by the …, priority 2007, dated 2013).
